Results: paper PMC7395068, “The evolution of strategies to minimise the risk of human drug-induced liver injury (DILI) in drug discovery and development” (Archives of Toxicology, 2020)
Read-outs that look alike come from different tables or passages of the source.

What was measured:
[1] = Plasma free fraction (fu) and unbound Cmax (Cmax,u); format: in vitro ADME, human; settings: unbound plasma Cmax
Description: The prediction of DILI severity was evaluated further using the 3D combined HCI assays using plasma-free fraction. The majority of fu values were obtained from literature, when unavailable in-house prediction was utilised. Unbound plasma Cmax concentrations (Cmax,u) were derived by multiplying total plasma Cmax with the corresponding free fraction (fu) for each compound.

[2] = test system: HepG2; design: method as in Albrecht 2019; settings: In vitro Assay; ref Albrecht 2019; cited from earlier work
[3] = cited from earlier work
[4] = test system: primary human hepatocytes, NIH3T3 fibroblasts, BSEP, CYP3A4; settings: cited from earlier work
[5] = test system: HepG2 cells; settings: cited from earlier work
[6] = test system: HepG2 cells; settings: cited from earlier work; remark: listed apart in the source
[7] = test system: human hepatocytes; settings: cited from earlier work
[8] = test system: THLE or HepG2 cells, isolated mitochondria, BSEP; settings: cited from earlier work
[9] = test system: PHH; settings: cited from earlier work
[10] = test system: hLiMTs; settings: cited from earlier work
[11] = test system: PHH spheroids; settings: In vitro Assay; ref Vorrink 2018; cited from earlier work
[12] = test system: HepG2 C3A spheroid, BSEP, Glu/Gal in HepG2 cells, bioactivation; settings: cited from earlier work
[13] = read-out: Human plasma Cmax; total plasma Cmax.tot, median of 9 literature references; cited from earlier work
[14] = plasma free fraction; cited from earlier work
[15] = cited from earlier work; remark: listed apart in the source
[16] = test system: PHH; settings: In vitro Assay; ref Albrecht 2019; cited from earlier work
[17] = test system: THLE-Null and THLE-3A4 cells; settings: In vitro Assay; ref Gustafsson 2014; cited from earlier work
[18] = test system: HepG2 cells, primary human hepatocytes; settings: In vitro Assay; ref Garside 2014; cited from earlier work
[19] = test system: isolated mouse liver mitochondria; settings: In vitro Assay; ref Porceddu 2012; cited from earlier work
[20] = test system: rBsep; settings: In vitro Assay; ref Dawson 2012; cited from earlier work
[21] = test system: hLiMTs; assay: Combined HCI (HCS) and cellular ATP 3D assay in hLiMTs; settings: for AC50 / minimal effective concentration: Homo sapiens
[22] = test system: HepaRG spheroids; assay: Combined HCI (HCS) and cellular ATP 3D assay in HepaRG spheroids; settings: for AC50 / minimal effective concentration: Homo sapiens
[23] = In vitro Assay, ref Schadt 2015
[24] = In vitro Assay, ref Persson 2013
[25] = Modeled in vitro assays (cytotoxicity, mitochondrial dysfunction, BSEP), ref Aleo et al. 2019
[26] = In vitro Assay, ref Proctor 2017
[27] = Microtissue model structural based (HCI), combined HCS and ATP, MEC < 25 × Cmax.tot cut-off

Cc1c(C)c2c(c(C)c1O)CCC(C)(COc1ccc(CC3SC(=O)NC3=O)cc1)O2 (stereo not drawn) [troglitazone, reference compound]
67.6 µM: minimal effective concentration ([21]; read-out: HCS endpoint MEC)
+VE: Cytotoxicity HepG2 48 hrs [2] | DILI +VE (5-8), DILI -VE (-4) ([3]; ref Chen 2016) | DILI in vitro assay prediction, Schadt (2015) ([4]; BSEP & Metabolism based, ref Schadt et al. 2015) | Cellular toxicity (3T3 cells) [4, 23] | Combined Assay [4, 23] | GSH adduct HML [4, 23] | Hepatocyte cellular toxicity [4, 23] | TDI CYP3A4 [4, 23] | hBSEP inhibition [4, 23] | Cluser analysis [5, 24] | Structural based (HCI) [5, 24] | DILI in vitro assay prediction, Persson (2013) ([5]; Structural based (HCI), HepG2, ref Persson et al. 2013) | Structural based (HCI) ([6]; In vitro Assay, ref Tolosa 2012) | DILI in vitro assay prediction, Tolosa (2012) ([6]; Structural based (HCI), HepG2, ref Tolosa et al. 2012) | Structural based (HCI) ([7]; In vitro Assay, ref Xu 2008) | DILI in vitro assay prediction, Xu (2008) ([7]; Structural based (HCI), human hepatocytes, ref Xu et al. 2008) | Partition Hybrid HRM Score ([8]; In vitro Assay, ref Aleo 2019) | Ro2 Hybrid HRM Score ([8]; In vitro Assay, ref Aleo 2019) | Bayesian Machine Learning DILI prediction, Williams (2019) ([12]; Bayesian modeling, ref Williams et al. 2019) | Bayesian Machine Learning ([12]; In vitro Assay, ref Williams 2019) | In vivo DILI ([15]; […]) | In vivo DILI ([15]; ref Albrecht 2019) | In vivo DILI ([15]; ref Aleo 2019) | In vivo DILI ([15]; ref Dawson 2012) | In vivo DILI ([15]; ref Garside 2014) | In vivo DILI ([15]; ref Gustafsson 2014) | In vivo DILI ([15]; ref Persson 2013) | In vivo DILI ([15]; ref Porceddu 2012) | In vivo DILI ([15]; ref Proctor 2017) | In vivo DILI ([15]; ref Schadt 2015) | In vivo DILI ([15]; ref Tolosa 2012) | In vivo DILI ([15]; ref Vorrink 2018) | In vivo DILI ([15]; ref Williams 2019) | In vivo DILI ([15]; ref Xu 2008) | Cytotoxicity PHH 48 hrs [16] | THLE-Null [17] | Cluster 1-6 +VE Assay [18] | in vitro data EC2<=1x Cmax [19] | in vitro data EC20<=2uM [19] | Inhibition of rBsep cutoff<1& cmax u>.2 [20] | Inhibition of rBsep cutoff<3 [20]
+VE (Partition Hybrid HRM Score ≥4): Partition Hybrid HRM Score ≥4, Aleo (2019) [8, 25]
+VE (IC50 threshold of 100 µM): hLiMTs ATP <100uM [10, 26] | hLiMTs/100uM, Proctor (2017) ([10]; hLiMTs, ATP, IC50 threshold 100 µM, ref Proctor et al. 2017)
74 µM: minimal effective concentration ([21]; read-out: ATP endpoint MEC)
28.8 µM: AC50 ([22]; HepaRG, read-out: ATP endpoint AC50)
+ve: hLiMTs <25x Avg Cmax ATP ([21]; hLiMTs, ATP endpoint, cut-off <25x Avg Cmax) | hLiMTs <25x Avg Cmax HCS ([21]; hLiMTs, HCS endpoints, cut-off <25x Avg Cmax) | hLiMTs <25x Avg Cmax All ([21]; hLiMTs, all endpoints (ATP and HCS), cut-off <25x Avg Cmax) | hLiMTs Cmax max All ([21]; hLiMTs, all endpoints, Cmax max used) | hLiMTs Cmax min All ([21]; hLiMTs, all endpoints, Cmax min used) | HepaRG <25x Avg Cmax ATP ([22]; HepaRG, ATP endpoint, cut-off <25x Avg Cmax) | HepaRG <25x Avg Cmax HCS ([22]; HepaRG, HCS endpoints, cut-off <25x Avg Cmax) | HepaRG <25x Avg Cmax All ([22]; HepaRG, all endpoints (ATP and HCS), cut-off <25x Avg Cmax) | HepaRG Cmax max All ([22]; HepaRG, all endpoints, Cmax max used) | HepaRG Cmax min All ([22]; HepaRG, all endpoints, Cmax min used)
0.010: fu [14]
25 µM: minimal effective concentration ([22]; HepaRG, read-out: ATP endpoint MEC)
+VE (Rule of Two hybrid HRM Score ≥8): Rule of Two hybrid HRM Score ≥8, Aleo (2019) [8, 25]
+VE (MEC < 25 × Cmax.tot cut-off): DILI prediction hLiMTs (HCS-MEC) [21, 27] | DILI prediction HepaRG spheroids (HCS-MEC) [22, 27]
+VE (IC20 < 20 × Cmax.tot cut-off): hLiMTs ATP <20 x Cmax [11]
33 µM: AC50 ([22]; HepaRG, read-out: HCS endpoint AC50)
vMost-DILI-Concern: DILI severity category ([3]; ref Chen 2016)
6.39 µM: Cmax [13]
+VE (Rule of Two hybrid HRM Score ≥3): Rule of Two hybrid HRM Score ≥3, Aleo (2019) [8, 25]
3: Assigned DILI category ([15]; Chen et al. 2016 or literature alignment, ref Chen et al. 2016)
+VE (Partition Hybrid HRM Score ≥8): Partition Hybrid HRM Score ≥8, Aleo (2019) [8, 25]
-VE: MitoTox 3T3 [4, 23] | PHH/100xCmax, Proctor (2017) ([9]; 2D PHH, ATP, IC50 < 100 × Cmax.tot, ref Proctor et al. 2017) | PHH/100uM, Proctor (2017) ([9]; 2D PHH, ATP, IC50 threshold 100 µM, ref Proctor et al. 2017) | PHH ATP <100uM [9, 26] | THLE-Null/3A4 [17]
Most: DILI severity category (Chen et al. [2016]) ([3]; LTKB DILIrank category, ref Chen et al. 2016) | DILI severity category (Chen 2016) ([3]; human DILI classification, LTKB DILIrank, ref Chen et al. 2016) | DILI severity category ([3]; human DILI severity, ref Chen et al.)
0.064 µM: Human plasma Cmax,u [1]
-ve: hLiMTs <100x Avg Cmaxu ATP ([21]; hLiMTs, ATP endpoint, cut-off <100x Avg Cmaxu) | hLiMTs <100x Avg Cmaxu HCS ([21]; hLiMTs, HCS endpoints, cut-off <100x Avg Cmaxu) | hLiMTs <10 uM All ([21]; hLiMTs, all endpoints, cut-off <10 uM) | hLiMTs <100x Avg Cmaxu All ([21]; hLiMTs, all endpoints, cut-off <100x Avg Cmaxu) | HepaRG <100x Avg Cmaxu ATP ([22]; HepaRG, ATP endpoint, cut-off <100x Avg Cmaxu) | HepaRG <100x Avg Cmaxu HCS ([22]; HepaRG, HCS endpoints, cut-off <100x Avg Cmaxu) | HepaRG <10 uM All ([22]; HepaRG, all endpoints, cut-off <10 uM) | HepaRG <100x Avg Cmaxu All ([22]; HepaRG, all endpoints, cut-off <100x Avg Cmaxu)
89.5 µM: AC50 ([21]; read-out: ATP endpoint AC50)
22 µM: minimal effective concentration ([22]; HepaRG, read-out: HCS endpoint MEC)
+VE (IC50 < 100 × Cmax.tot): hLiMTs/100xCmax, Proctor (2017) ([10]; hLiMTs, ATP, IC50 < 100 × Cmax.tot, ref Proctor et al. 2017)
73.6 µM: AC50 ([21]; read-out: HCS endpoint AC50)
